Measurements: US10273226B2, “Pyrazolyl-heteroarylamides as pesticides” (Bayer Animal Health GmbH, priority 2014, dated 2019)

Tests used:
Type in all cases: in vivo
Boophilus microplus = Boophilus microplus injection test; details: application rate 20 μg/animal; injection into abdomen; assessed after 7 days
Protocol: Boophilus microplus—Injection Test
(§1) Solvent: dimethyl sulphoxide
To produce an appropriate active ingredient formulation, 10 mg of active ingredient are mixed with 0.5 ml of solvent and the concentrate is diluted with solvent to the desired concentration.
1 μl of the active ingredient solution is injected into the abdomen of 5 engorged adult female cattle ticks (Boophilus microplus). The animals are transferred into dishes and kept in a climate-controlled room.
Efficacy is assessed after 7 days by laying of fertile eggs. Eggs which are not visibly fertile are stored in a climate-controlled cabinet until the larvae hatch after about 42 days. An efficacy of 100% means that none of the ticks has laid any fertile eggs; 0% means that all the eggs are fertile.

Ctenocephalides felis [1] = assay: Ctenocephalides felis oral test; details: application rate 100 ppm in citrated cattle blood; after 2 days
Protocol: Ctenocephalides felis—Oral Test
as §1
For the purpose of producing an appropriate active ingredient formulation, 10 mg of active ingredient are mixed with 0.5 ml of dimethyl sulphoxide. Dilution with citrated cattle blood gives the desired concentration.
About 20 unfed adult cat fleas (Ctenocephalides felis) are placed into a chamber which is closed at the top and bottom with gauze. A metal cylinder whose bottom end is closed with parafilm is placed onto the chamber. The cylinder contains the blood/active ingredient preparation, which can be imbibed by the fleas through the parafilm membrane.
After 2 days, the kill in % is determined. 100% means that all of the fleas have been killed; 0% means that none of the fleas have been killed.

Lucilia cuprina = Lucilia cuprina test; details: application rate 100 ppm; L1 larvae; after 2 days
Protocol: as §1
To produce an appropriate active ingredient formulation, 10 mg of active ingredient are mixed with 0.5 ml of dimethyl sulphoxide, and the concentrate is diluted with water to the desired concentration.
About 20 L1 larvae of the Australian sheep blowfly (Lucilia cuprina) are transferred into a test vessel containing minced horsemeat and the active ingredient preparation of the desired concentration.
After 2 days, the kill in % is determined. 100% means that all the larvae have been killed and 0% means that none of the larvae have been killed.

Spodoptera frugiperda = Spodoptera frugiperda spray test; details: caterpillars, after 7 days
Protocol: Spodoptera frugiperda—Spray Test
(§2) To produce an appropriate active ingredient formulation, 1 part by weight of active ingredient is dissolved using the specified parts by weight of solvent and made up with water containing an emulsifier concentration of 1000 ppm until the desired concentration is attained. To produce further test concentrations, the preparation is diluted with emulsifier-containing water.
Leaf discs of maize (Zea mays) are sprayed with an active ingredient formulation of the desired concentration and, after drying, populated with caterpillars of the armyworm (Spodoptera frugiperda).
After 7 days, efficacy in % is determined. 100% means that all the caterpillars have been killed; 0% means that no caterpillars have been killed.

Tetranychus urticae = Tetranychus urticae spray test, OP-resistant; details: application rate 100 g/ha; after 6 days
Protocol: Tetranychus urticae—Spray Test, OP-Resistant
as §2
Discs of bean leaves (Phaseolus vulgaris) infested by all stages of the greenhouse red spider mite (Tetranychus urticae) are sprayed with an active ingredient formulation of the desired concentration.
After 6 days, efficacy in % is determined. 100% means that all the spider mites have been killed; 0% means that none of the spider mites have been killed.

Rhipicephalus sanguineus = Rhipicephalus sanguineus in vitro contact test with adult brown dog ticks; details: after 48 h, ticks dead or moribund
Protocol: Rhipicephalus sanguineus—In Vitro Contact Tests with Adult Brown Dog Ticks
(§3) For the coating of the test tubes, 9 mg of active ingredient are first dissolved in 1 ml of acetone p.a. and then diluted to the desired concentration with acetone p.a. 250 μl of the solution are distributed homogeneously on the inner walls and base of a 25 ml test tube by turning and rocking on an orbital shaker (rocking rotation at 30 rpm for 2 h). With 900 ppm active ingredient solution and internal surface 44.7 cm^2, given homogeneous distribution, an area-based dose of 5 μg/cm^2 is achieved.
After the solvent has evaporated off, the tubes are populated with 5-10 adult dog ticks (Rhipicephalus sanguineus), sealed with a perforated plastic lid and incubated in a horizontal position in the dark at room temperature and ambient humidity. After 48 h, efficacy is determined. To this end, the ticks are knocked to the floor of the tube and incubated on a hotplate at 45-50° C. for not more than 5 min. Ticks which remain motionless on the floor or move in such an uncoordinated manner that they are unable to deliberately avoid the heat by climbing upwards are considered to be dead or moribund.
An efficacy of 100% means that all the ticks were dead or moribund. 0% efficacy means that none of the ticks had been harmed.

Phaedon cochleariae = Phaedon cochleariae spray test; details: larvae, after 7 days
Protocol: Phaedon cochleariae—Spray Test
as §2
Discs of Chinese cabbage leaves (Brassica pekinensis) are sprayed with an active ingredient formulation of the desired concentration and, after drying, populated with larvae of the mustard beetle (Phaedon cochleariae).
After 7 days, efficacy in % is determined. 100% means that all the beetle larvae have been killed; 0% means that no beetle larvae have been killed.

Ctenocephalides felis [2] = assay: Ctenocephalides felis in vitro contact test with adult cat fleas; details: application rate 5 μg/cm^2 (500 g/ha); after 48 h; fleas dead or moribund
Protocol: Ctenocephalides felis—In Vitro Contact Tests with Adult Cat Fleas
as §3
After the solvent has evaporated off, the tubes are populated with 5-10 adult cat fleas (Ctenocephalides felis), sealed with a perforated plastic lid and incubated in a horizontal position at room temperature and ambient humidity. After 48 h, efficacy is determined. To this end, the test tubes are stood upright and the fleas are knocked to the base of the tube. Fleas which remain motionless at the base or move in an uncoordinated manner are considered to be dead or moribund.
100% efficacy means that all the fleas were dead or moribund. 0% efficacy means that no fleas were harmed.

[3] = application rate 5 μg/cm^2 (500 g/ha)

SMILES	efficacy (laying of fertile eggs) (Boophilus microplus) [%]	efficacy (kill in %) (Ctenocephalides felis [1]) [%]	efficacy (kill in %) (Lucilia cuprina) [%]	efficacy (Spodoptera frugiperda; application rate 100 g/ha) [%]	efficacy (Tetranychus urticae) [%]	efficacy (Rhipicephalus sanguineus; [3]) [%]	efficacy (Phaedon cochleariae; application rate 100 g/ha) [%]	efficacy (Phaedon cochleariae; application rate 500 g/ha) [%]	efficacy (Spodoptera frugiperda; application rate 500 g/ha) [%]	efficacy (Ctenocephalides felis [2]) [%]	efficacy (Rhipicephalus sanguineus; application rate 1 μg/cm^2 (100 g/ha)) [%]
CCC(C)C(=O)Nc1cc(-c2cnn(-c3c(C(F)(F)F)c(C(F)(F)C(F)(F)F)nn3C)c2)ccc1F (racemic) [Example 1-052]	100	90	100	100	100	–	–	–	–	–	–
Cn1nc(C(F)(F)C(F)(F)F)c(C(F)(F)F)c1-n1cc(-c2cccc(NC(=O)c3cc(Cl)nc(Cl)c3)c2)cn1 [Example 1-011]	100	100	100	–	90	80	100	–	–	–	–
Cn1nc(C(F)(F)C(F)(F)F)c(C(F)(F)F)c1-n1cc(-c2cccc(NC(=O)c3c(F)cccc3F)c2)cn1 [Example 1-015]	100	100	100	100	100	80	100	–	–	–	–
Cn1nc(C(F)(F)C(F)(F)F)c(C(F)(F)F)c1-n1cc(-c2cccc(NC(=O)c3sccc3Cl)c2)cn1 [Example 1-018]	100	–	–	–	90	–	–	100	100	–	–
Cn1nc(C(F)(F)C(F)(F)F)c(C(F)(F)F)c1-n1cc(-c2ccc(Cl)c(NC(=O)c3ccccc3)c2)cn1 [Example 1-023]	100	100	100	100	100	100	100	–	–	100	–
Cn1nc(C(F)(F)C(F)(F)F)c(C(F)(F)F)c1-n1cc(-c2cccc(NC(=O)C3(C#N)CC3)c2)cn1 [Example 1-029]	100	100	100	–	100	100	–	83	100	–	–
Cn1nc(C(F)(F)C(F)(F)F)c(C(F)(F)F)c1-n1cc(-c2ccc(F)c(NC(=O)c3ccc(F)cc3)c2F)cn1 [Example 1-039]	–	–	–	100	100	–	100	–	–	80	–
Cc1cc(C(=O)Nc2cc(-c3cnn(-c4c(C(F)(F)F)c(C(F)(F)C(F)(F)F)nn4C)c3)ccc2F)cc(Cl)n1 [Example 1-043]	100	100	100	100	100	–	100	–	–	–	80
Cn1nc(C(F)(F)C(F)(F)F)c(C(F)(F)F)c1-n1cc(-c2ccc(F)c(NC(=O)C(C)(C)CF)c2)cn1 [Example 1-046]	100	–	100	–	100	–	–	–	–	–	–
CN(C)c1ccc(C(=O)Nc2cc(-c3cnn(-c4c(C(F)(F)F)c(C(F)(F)C(F)(F)F)nn4C)c3)ccc2F)cc1 [Example 1-054]	100	–	100	100	100	100	100	–	–	–	–
CC(C)C(C)(C)C(=O)Nc1cc(-c2cnn(-c3c(C(F)(F)F)c(C(F)(F)C(F)(F)F)nn3C)c2)ccc1F [Example 1-065]	100	90	80	–	100	–	–	–	–	–	–
C[C@@H](F)C(=O)Nc1cc(-c2cnn(-c3c(C(F)(F)F)c(C(F)(F)C(F)(F)F)nn3C)c2)ccc1F [Example 1-066]	100	100	80	–	–	100	–	–	–	100	–
Cc1occc1C(=O)Nc1cc(-c2cnn(-c3c(C(F)(F)F)c(C(F)(F)C(F)(F)F)nn3C)c2)ccc1F [Example 1-067]	100	100	100	100	100	–	100	–	–	–	–
Cc1ccc(C(=O)Nc2cc(-c3cnn(-c4c(C(F)(F)F)c(C(F)(F)C(F)(F)F)nn4C)c3)ccc2F)s1 [Example 1-069]	100	100	100	100	90	100	100	–	–	100	–
Cn1nc(C(F)(F)C(F)(F)F)c(C(F)(F)F)c1-n1cc(-c2ccc(F)c(NC(=O)C(C)(C)C)c2)cn1 [Example 1-078]	100	80	100	100	100	100	–	–	–	–	–
Cc1ccc2c(Cl)c(C(=O)Nc3cc(-c4cnn(-c5c(C(F)(F)F)c(C(F)(F)C(F)(F)F)nn5C)c4)ccc3F)sc2c1 [Example 1-083]	80	–	–	–	–	–	–	–	–	80	–
Cc1ccc(C(=O)Nc2cc(-c3cnn(-c4c(C(F)(F)F)c(C(F)(F)C(F)(F)F)nn4C)c3)ccc2F)cc1F [Example 1-092]	100	100	100	100	100	100	100	–	–	–	–
Cn1nc(C(F)(F)C(F)(F)F)c(C(F)(F)F)c1-n1cc(-c2ccc(F)c(NC(=O)c3ccc4c(c3)OCO4)c2)cn1 [Example 1-093]	100	100	100	100	100	100	100	–	–	–	–
Cn1nc(C(F)(F)C(F)(F)F)c(C(F)(F)F)c1-n1cc(-c2ccc(F)c(NC(=O)Cc3cccc(F)c3)c2)cn1 [Example 1-121]	100	100	100	100	100	100	100	–	–	–	–
